The test system of this assay is isolated mouse vas deferens. Format: cell-based. The protocol:
The compounds were examined for their ability to inhibit neurally evoked contractions of the isolated mouse vas deferens preparation (method of Hughes et al, Brain Research, 88 (1975) 296, using pulses at 0.1 Hz).
The heights of the five contractions that immediately preceded the addition of the first "dose" of test compound were measured and their mean calculated. The resultant mean contraction associated with a particular bath concentration of test compound was calculated from the heights of the 6th, 7th, 8th, 9th and 10th contractions after the addition of the appropriate "dose" of test compound, i.e. the five contractions that immediately preceded the subsequent "dose" or washout.
Generally at least two cumulative dose response curves were constructed and a mean D50 calculated.

As to `COC(=O)[C@H](CCSC)NC(=O)[C@H](Cc1ccccc1)NC(=O)CNC(=O)[C@@H](C)NC(=O)[C@@H](N)Cc1ccc(O)cc1` [5(b), H.Tyr. --D-Ala.Gly.Phe.Met.OMe], the “Relative Potency (Morphine)” value (RP=antilog[logD50(MORPHINE) - logD50(TEST COMPOUND)], morphine = 1.0) stood at 94. For the compound `CN1CC[C@]23c4c5ccc(O)c4O[C@H]2[C@@H](O)C=C[C@H]3[C@H]1C5` [Morphine], the “Reversal of the inhibition of the contractions by naloxone” value is “Reversal of the inhibition of the contractions was effected”.

The values are drawn from USH810H, “Biologically active amides” (priority 1976, dated 1990).
